Test results: US20130165641A1, “6,11-BRIDGED BIARYL MACROLIDES” (Enanta Pharmaceuticals, Inc., priority 2007, published 2013)
Values after ≈ are worked out from the molar mass of the structure shown.

Key:
H. influenzae = assay: MIC by micro-dilution method, H. influenzae isolates; format: cell-based, Haemophilus influenzae
Description: (§1) Susceptibility tests can be used to quantitatively measure the in vitro activity of an antimicrobial agent against a given bacterial isolate. Compounds are tested for in vitro antibacterial activity by a micro-dilution method. Minimal Inhibitory Concentration (MIC) is determined in 96 well microtiter plates utilizing the appropriate broth medium for the observed bacterial isolates. […] The diluted compounds (2 μl/well) are then transferred into sterile, uninoculated medium (0.2 mL) by use of a 96 fixed tip-pipetting station. The inoculum for each bacterial strain is standardized to approximately 5×10^5 CFU/mL by optical comparison to a 0.5 McFarland turbidity standard. The plates are inoculated with 10 μl/well of adjusted bacterial inoculum. The 96 well plates are covered and incubated at 35+/−2° C. for 24 hours in ambient air environment. Following incubation, plate wells are visually examined by Optical Density measurement for the presence of growth (turbidity). The lowest concentration of an antimicrobial agent at which no visible growth occurs is defined as the MIC.
(§2) All in vitro testing follows the guidelines described in the Approved Standards M7-A7 protocol, published by the Clinical Laboratory Standards Institute (CLSI).

MRSA = assay: MIC by micro-dilution method, MRSA isolates; format: cell-based, Staphylococcus aureus; conditions: compounds of Formula XVI; for MIC MRSA 7662: MRSA isolate 7662; for MIC MRSA 33591: MRSA isolate 33591
Description: as §1, §2

MIC MRSA 7662 (MRSA)	MIC MRSA 33591 (MRSA)	SMILES	MIC (H. influenzae; H. influenzae 33929)	MIC (H. influenzae; H. influenzae 49247)
–	–	CCC1OC(=O)C(C)C(=O)C(C)C(OC2OC(C)CC(N(C)C)C2O)C2(C)CC(C)C(=O)C(C)C(OCC(=NOCc3ccc(-c4nsc(N)n4)cn3)CO2)C1(C)O (centres unmarked) [Example 35]	2 µg/mL (≈ 2.4 µM)	2 µg/mL (≈ 2.4 µM)
–	–	CCC1OC(=O)C(C)C(=O)C(C)C(OC2OC(C)CC(N(C)C)C2O)C2(C)CC(C)C(=NC(C)=O)C(C)C(OCC(=NOCc3cnc(-c4cccc(N)n4)o3)CO2)C1(C)O (centres unmarked) [Example 70]	2 µg/mL (≈ 2.33 µM)	2 µg/mL (≈ 2.33 µM)
–	–	CCC1OC(=O)C(C)(F)C(=O)C(C)C(OC2OC(C)CC(N(C)C)C2O)C2(C)CC(C)C(=NC(C)=O)C(C)C(OCC(=NOCc3ccn(-c4cccc(N)n4)n3)CO2)C1(C)O (centres unmarked) [Example 59]	2 µg/mL (≈ 2.29 µM)	2 µg/mL (≈ 2.29 µM)
–	–	CCC1OC(=O)C(C)C(=O)C(C)C(OC2OC(C)CC(N(C)C)C2O)C2(C)CC(C)C(=O)C(C)C(OCC(=NOCc3ncc(-c4cccc(N)n4)s3)CO2)C1(C)O (centres unmarked) [Example 63]	2 µg/mL (≈ 2.4 µM)	1 µg/mL (≈ 1.2 µM)
–	–	CCC1OC(=O)C(C)(F)C(=O)C(C)C(OC2OC(C)CC(N(C)C)C2O)C2(C)CC(C)C(=O)C(C)C(OCC(=NOCc3ccc(-n4ccc(N)n4)nc3)CO2)C1(C)O (centres unmarked) [Example 49]	2 µg/mL (≈ 2.4 µM)	2 µg/mL (≈ 2.4 µM)
–	–	CCC1OC(=O)C(C)C(=O)C(C)C(OC2OC(C)CC(N(C)C)C2O)C2(C)CC(C)C(=O)C(C)C(OCC(=NOCc3cnc(-c4cccc(N)n4)s3)CO2)C1(C)O (centres unmarked) [Example 34]	2 µg/mL (≈ 2.4 µM)	2 µg/mL (≈ 2.4 µM)
–	–	CCC1OC(=O)C(C)C(=O)C(C)C(OC2OC(C)CC(N(C)C)C2O)C2(C)CC(C)C(=O)C(C)C(OCC(=NOCc3ccc(-c4nc(N)cs4)cn3)CO2)C1(C)O (centres unmarked) [Example 32]	2 µg/mL (≈ 2.4 µM)	2 µg/mL (≈ 2.4 µM)
–	–	CCC1OC(=O)C(C)C(=O)C(C)C(OC2OC(C)CC(N(C)C)C2O)C2(C)CC(C)C(=O)C(C)C(OCC(=NOCc3ccc(-c4csc(N)n4)cn3)CO2)C1(C)O (centres unmarked) [Example 41]	2 µg/mL (≈ 2.4 µM)	1 µg/mL (≈ 1.2 µM)
–	–	CCC1OC(=O)C(C)C(=O)C(C)C(OC2OC(C)CC(N(C)C)C2O)C2(C)CC(C)C(=O)C(C)C(OCC(=NOCc3ccn(-c4cccc(N)n4)n3)CO2)C1(C)O (centres unmarked) [Example 58]	2 µg/mL (≈ 2.45 µM)	2 µg/mL (≈ 2.45 µM)
–	–	CCC1OC(=O)C(C)(F)C(=O)C(C)C(OC2OC(C)CC(N(C)C)C2O)C2(C)CC(C)C(=O)C(C)C(OCC(=NOCc3ccc(-c4nc(N)no4)cc3)CO2)C1(C)O (centres unmarked) [Example 38]	2 µg/mL (≈ 2.4 µM)	4 µg/mL (≈ 4.8 µM)
8 µg/mL (≈ 8.89 µM)	8 µg/mL (≈ 8.89 µM)	CCC1OC(=O)C(C)(F)C(=O)C(C)C(OC2OC(C)CC(N(C)C)C2O)C2(C)CC(C)C(=NC(=O)C3CC3)C(C)C(OCC(=NOCc3ccc(-n4ccc(N)n4)cn3)CO2)C1(C)O (centres unmarked) [Example 94]	–	–
2 µg/mL (≈ 2.18 µM)	2 µg/mL (≈ 2.18 µM)	CC[C@H]1OC(=O)[C@@](C)(F)C(=O)[C@H](C)[C@@H](O[C@@H]2O[C@H](C)C[C@H](N(C)C)[C@H]2O)[C@@]2(C)C[C@@H](C)C(=NC(=O)C(C)C)[C@H](C)[C@@H](OC/C(=N\OCc3ccc(-c4nc(N)cs4)cn3)CO2)[C@]1(C)O [Example 109]	–	–
4 µg/mL (≈ 4.58 µM)	8 µg/mL (≈ 9.15 µM)	CCC1OC(=O)C(C)(F)C(=O)C(C)C(OC2OC(C)CC(N(C)C)C2O)C2(C)CC(C)C(=NC(C)=O)C(C)C(OCC(=NOCc3ccc(-n4ccc(N)n4)cn3)CO2)C1(C)O (centres unmarked) [Example 82]	–	–
8 µg/mL (≈ 9.03 µM)	8 µg/mL (≈ 9.03 µM)	CCC(=O)N=C1[C@H](C)C[C@@]2(C)OC/C(=N/OCc3ccc(-c4nc(N)cs4)cc3)CO[C@H]([C@H]1C)[C@](C)(O)[C@@H](CC)OC(=O)[C@H](C)C(=O)[C@H](C)[C@H]2O[C@@H]1O[C@H](C)C[C@H](N(C)C)[C@H]1O [Example 121]	–	–
2 µg/mL (≈ 2.18 µM)	2 µg/mL (≈ 2.18 µM)	CC[C@H]1OC(=O)[C@@](C)(F)C(=O)[C@H](C)[C@@H](O[C@@H]2O[C@H](C)C[C@H](N(C)C)[C@H]2O)[C@@]2(C)C[C@@H](C)C(=NC(=O)C(C)C)[C@H](C)[C@@H](OC/C(=N\OCc3ncc(-c4cccc(N)n4)s3)CO2)[C@]1(C)O [Example 111]	–	–
4 µg/mL (≈ 4.58 µM)	4 µg/mL (≈ 4.58 µM)	CCC1OC(=O)C(C)(F)C(=O)C(C)C(OC2OC(C)CC(N(C)C)C2O)C2(C)CC(C)C(=NC(C)=O)C(C)C(OCC(=NOCc3ccc(-n4ccc(N)n4)cc3)CO2)C1(C)O (centres unmarked) [Example 81]	–	–
4 µg/mL (≈ 4.41 µM)	4 µg/mL (≈ 4.41 µM)	CCC1OC(=O)C(C)(F)C(=O)C(C)C(OC2OC(C)CC(N(C)C)C2O)C2(C)CC(C)C(=NC(C)=O)C(C)C(OCC(=NOCc3ccc(-n4ccc(N)n4)cc3Cl)CO2)C1(C)O (centres unmarked) [Example 89]	–	–
8 µg/mL (≈ 8.88 µM)	8 µg/mL (≈ 8.88 µM)	CCC1OC(=O)C(C)C(=O)C(C)C(OC2OC(C)CC(N(C)C)C2O)C2(C)CC(C)C(=NC(=O)C(C)C)C(C)C(OCC(=NOCc3ccc(-n4ccc(N)n4)cc3F)CO2)C1(C)O (centres unmarked) [Example 98]	–	–
8 µg/mL (≈ 8.98 µM)	8 µg/mL (≈ 8.98 µM)	CCC1OC(=O)C(C)(F)C(=O)C(C)C(OC2OC(C)CC(N(C)C)C2O)C2(C)CC(C)C(=NC(C)=O)C(C)C(OCC(=NOCc3cnc(-c4cccc(N)n4)s3)CO2)C1(C)O (centres unmarked) [Example 97]	–	–
